From article PMC8434491, “Targeting the Integrated Stress Response Kinase GCN2 to Modulate Retroviral Integration” (Molecules, 2021)
Where a name gives a salt, the structure may show the parent alone. Read-outs that look alike come from different tables or passages of the source.

Columns and labels:
IN–GCN2 interaction = target: T1, IN–GCN2 interaction (UniProt P04585+Q9P2K8); assay: IN–GCN2 interaction assay (AlphaLISA); assay type: binding, HIV-1 IN / human GCN2; details: for effect on the IN–GCN2 interaction: A-92: over a wide concentration range, MK-2048: nanomolar or low micromolar ranges
T1 construct: expressed as a truncated version (192-1024) in fusion after a glutathione S-transferase tag; Recombinant full-length IN was expressed in E. coli BL21 pLys; purchased SignalChem (GCN2); IN made in house in E. coli BL21 pLys E12-11G; host or cells: E. coli BL21 pLys (IN)
Description: We developed an in vitro plate-based assay to monitor the interaction between GCN2 and IN using the AlphaLISA technology (Figure 1). Taking advantage of the tags present on each recombinant protein (6xHis for IN prepared “in-house”, and GST for GCN2 commercially available), we used specific beads that fluoresce only when they are in close proximity (<200 nm). The signal obtained (light count) is directly proportional to the binding of IN to GCN2 (homogenous solution assay at steady state).
IN–GCN2 interaction assay. Protein–protein interactions were monitored using the AlphaLISA technology (Perkin Elmer) taking advantage of the GST and 6xHis tags of GCN2 and IN, respectively. Accordingly, AlphaScreen GSH Donor beads and AlphaLISA Nickel Acceptor beads were used (Perkin Elmer). Reactions were carried out at room temperature by incubating GCN2 with drugs or DMSO for 5 min before addition of AlphaLISA Nickel Acceptor beads. After 5 min, IN was added to the reaction mixture and incubated for 20 min before adding the AlphaScreen GSH Donor beads. This interaction assay was performed in conditions similar to the in vitro phosphorylation assay, already described, using 25 nM GCN2 and 700 nM (except indicated otherwise) in a reaction buffer containing 50 mM Tris-HCl pH 7.5, 40 mM NaCl, 1 mM dithiothreitol (DTT), 0.05% Tween 20, 0.1% bovine serum albumin (BSA), 10 µg/mL of each donor and acceptor beads. Alpha signal was measured using an EnSight plate reader (Perkin Elmer) 120 min after the addition of the latest component of the reaction (unless indicated otherwise).

GCN2 = target: T2, GCN2 (Homo sapiens, UniProt Q9P2K8); assay: In vitro phosphorylation assay: GCN2 activation (auto-phosphorylation); assay type: biochemical; details: for decrease in GCN2 auto-phosphorylation: single dose of 100 µM, compared to DMSO
T2 construct: expressed as a truncated version (192-1024) in fusion after a glutathione S-transferase tag; purchased SignalChem E12-11G
T2 sequence (Q9P2K8 192-1024): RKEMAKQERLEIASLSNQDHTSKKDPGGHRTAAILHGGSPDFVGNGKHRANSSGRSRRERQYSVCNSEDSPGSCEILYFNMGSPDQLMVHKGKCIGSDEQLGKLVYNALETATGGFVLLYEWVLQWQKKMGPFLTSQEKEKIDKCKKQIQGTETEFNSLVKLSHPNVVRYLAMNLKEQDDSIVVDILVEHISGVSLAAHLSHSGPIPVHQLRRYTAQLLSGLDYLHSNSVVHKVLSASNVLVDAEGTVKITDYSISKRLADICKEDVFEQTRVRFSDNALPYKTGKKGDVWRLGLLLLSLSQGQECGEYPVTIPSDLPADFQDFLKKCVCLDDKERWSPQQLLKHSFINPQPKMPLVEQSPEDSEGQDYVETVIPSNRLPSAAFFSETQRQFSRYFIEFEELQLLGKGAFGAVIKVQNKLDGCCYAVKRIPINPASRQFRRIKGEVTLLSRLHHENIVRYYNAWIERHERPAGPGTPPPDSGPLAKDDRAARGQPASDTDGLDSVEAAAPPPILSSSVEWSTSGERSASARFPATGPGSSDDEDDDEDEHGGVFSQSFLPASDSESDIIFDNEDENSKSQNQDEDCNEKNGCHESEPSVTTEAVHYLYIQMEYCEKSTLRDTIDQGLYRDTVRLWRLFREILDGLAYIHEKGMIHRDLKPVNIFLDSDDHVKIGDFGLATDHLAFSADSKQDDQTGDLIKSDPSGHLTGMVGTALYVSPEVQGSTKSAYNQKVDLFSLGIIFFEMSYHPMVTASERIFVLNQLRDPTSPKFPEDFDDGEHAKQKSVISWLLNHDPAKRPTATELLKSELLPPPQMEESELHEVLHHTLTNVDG
Description: Enzymes. GCN2 was purchased from SignalChem (EIF2AK4, cat. #E12-11G). This human recombinant protein was expressed as a truncated version (192-1024) in fusion after a glutathione S-transferase tag (approximate molecular weight of 132 kDa). Recombinant full-length IN was expressed in E. coli BL21 pLys (IPTG induction) and purified on a nickel chelating column, as described. Integrity and purity were checked by direct Coomassie coloration of elution fractions on SDS-PAGE before dialysis to remove imidazole. Protein concentration was determined using a NanoDrop 2000 with the following parameters: molecular weight: 34 kDa, extinction coefficient ϵ = 50,460 mol^−1cm^−1L.
In vitro phosphorylation assay. Phosphorylation of IN (700 nM) was carried out using 25 nM of GCN2 in a reaction buffer containing 10 mM Tris-HCl pH 7.5, 50 mM NaCl, 15 mM MgCl2, 7.5 mM MnCl2, 10 mM DTT, 0.005% Nonidet P-40, 100 µM ATP, 50 µCi/µL of [γ-^32P]-ATP (3000 Ci/mmole, Perkin Elmer). Reactions (20 µL) were stopped after a 60 min incubation at 30 °C by adding 10 µL of loading buffer [80 mM Tris-HCl pH 6.8, 100 mM DTT, 10% glycerol, 1% sodium dodecyl sulfate (SDS) and 0.05% bromophenol blue]. Samples were then loaded onto a 10% denaturating SDS-PAGE. After protein separation (120 V for 120 min) the gel was stained using Coomassie Brilliant Blue R-250. Autoradiography was performed using an imaging plate (Fujifilm, Tokyo, Japan) and images were obtained with a FLA-5000 Imaging System (Fujifilm).

HIV-1 IN [1] = target: T3, HIV-1 IN (Human immunodeficiency virus type 1 group M subtype B, UniProt P04585); assay: Integrase reaction, 3'-processing (3'-P), gel-based; assay type: biochemical; details: gel-based assay
T3 construct: Recombinant full-length IN was expressed in E. coli BL21 pLys; 6xHis; made in house; host or cells: E. coli BL21 pLys
Experimental: (§1) Oligonucleotides. Oligonucleotides were purchased from Integrated DNA Technologies, Inc. (Leuven, Belgium), purified on polyacrylamide gel through electro-elution and dissolve in water. 19T ([…]) and 21B ([…]) correspond to the cleaved and non-cleaved strands specifically recognized by HIV-1 IN. Radiolabeling of 19T at the 5′-end was performed with [γ-^32P] ATP (Perkin-Elmer, Villebon-sur-Yvette, France) using T4 polynucleotide kinase (Promega, Charbonnières-les-Bains, France), according to the manufacturers’ instructions. Unincorporated isotopes were removed using illustra microspin G-25 Columns (Cytiva life sciences, Amersham, Little Chalfont, United Kingdom). DNA duplexes were annealed using an equimolar ratio of the complementary strand 21B, heating to 95 °C, and slow cooling to room temperature.
Integrase reactions. IN reactions were carried out by adding molecules or an equivalent volume of 100% DMSO (dimethyl sulfoxide, used as the drug solvent) to a mixture of 20 nM duplex DNA (19T/21B) and 400 nM IN in 50 mM MOPS pH 7.2, 7.5 mM MgCl2, and 14 mM 2-mercaptoethanol. […] Densitometric analyses were performed using the ImageQuant 5.1 software (GE Healthcare, Chicago, IL, USA) and data analyzed using Prism 6.05 software (GraphPad, San Diego, CA, USA).

HIV-1 IN [2] = target: T3, HIV-1 IN; assay: Integrase reaction, strand transfer (ST), gel-based; assay type: biochemical
Experimental: as §1
Integrase reactions. IN reactions were carried out by adding molecules or an equivalent volume of 100% DMSO (dimethyl sulfoxide, used as the drug solvent) to a mixture of 20 nM duplex DNA (19T/21B) and 400 nM IN in 50 mM MOPS pH 7.2, 7.5 mM MgCl2, and 14 mM 2-mercaptoethanol. Reactions were performed at 37 °C for 1 h and quenched by addition of an equal volume (10 µL) of loading buffer [formamide containing 1% SDS (sodium dodecyl sulfate), 0.25% bromophenol blue, and xylene cyanol]. Reaction products were separated in 16% polyacrylamide denaturing sequencing gels. Dried gels were visualized using a FLA-5000 imaging system (Fujifilm). Densitometric analyses were performed using the ImageQuant 5.1 software (GE Healthcare, Chicago, IL, USA) and data analyzed using Prism 6.05 software (GraphPad, San Diego, CA, USA).

[3] = target: T4, IN's phosphorylation catalyzed by GCN2 (Homo sapiens, UniProt Q9P2K8); assay: In vitro phosphorylation assay: phosphorylation of IN catalyzed by GCN2; assay type: biochemical, human GCN2 / HIV-1 IN; details: for inhibition at 100 µM: read-out: decrease (inhibition) in IN phosphorylation; for concentration giving full inhibition of IN phosphorylation: serial dilutions from 300 µM to 137 nM
T4 construct: expressed as a truncated version (192-1024) in fusion after a glutathione S-transferase tag; purchased SignalChem (GCN2); IN made in house in E. coli BL21 pLys E12-11G; host or cells: E. coli BL21 pLys (IN)
T4 sequence (Q9P2K8 192-1024): T2 sequence (Q9P2K8 192-1024)
Experimental: Enzymes. GCN2 was purchased from SignalChem (EIF2AK4, cat. #E12-11G). […] Recombinant full-length IN was expressed in E. coli BL21 pLys (IPTG induction) and purified on a nickel chelating column, as described. Integrity and purity were checked by direct Coomassie coloration of elution fractions on SDS-PAGE before dialysis to remove imidazole.
In vitro phosphorylation assay. […] Reactions (20 µL) were stopped after a 60 min incubation at 30 °C by adding 10 µL of loading buffer [80 mM Tris-HCl pH 6.8, 100 mM DTT, 10% glycerol, 1% sodium dodecyl sulfate (SDS) and 0.05% bromophenol blue]. Samples were then loaded onto a 10% denaturating SDS-PAGE. After protein separation (120 V for 120 min) the gel was stained using Coomassie Brilliant Blue R-250. Autoradiography was performed using an imaging plate (Fujifilm, Tokyo, Japan) and images were obtained with a FLA-5000 Imaging System (Fujifilm).

[4] = single dose of 100 µM, compared to DMSO
[5] = 100 µM, dose-response experiment
[6] = pilot screen, single dose of 100 µM, read-out: inhibition of the IN–GCN2 interaction signal
[7] = pilot screen, single dose of 100 µM

Compound: c1nn(C2CCOCC2)cc1Nc1ncc2nnn(-c3ccc4cn[nH]c4c3)c2n1 [A-92]
- doses with a slight impact on IN–GCN2 interaction (IN–GCN2 interaction): above 333 µM
- inhibition at 1000 µM (IN–GCN2 interaction; 1 mM): < 20%
- effect on the IN–GCN2 interaction (IN–GCN2 interaction): did not affect
- IC50 (GCN2; read-out: apparent IC50, GCN2's activation (autophosphorylation)): ~200 nM

Compound: CCN1C[C@@H](C)n2c(c(O)c3c(=O)n(Cc4ccc(F)c(Cl)c4)nc(C(=O)NC)c32)C1=O [MK-2048]
- IC50 (HIV-1 IN [1]): 2000 nM
- IC50 (HIV-1 IN [2]; gel-based assay, read-out: apparent IC50, inhibition of ST): 20 nM
- effect on the IN–GCN2 interaction (IN–GCN2 interaction): did not affect
- IC50 (IN–GCN2 interaction; read-out: apparent IC50, IN–GCN2 interaction): ~100000 nM

Compound: Clc1ccc(C(c2ccccc2Cl)C(Cl)Cl)cc1 (stereo not shown) [NSC38721, Mitotane]
- effect on IN strand transfer activity (HIV-1 IN [2]; serial dilutions from 100 µM to 45.7 nM, only IN present): inactive
- inhibition at 100 µM [3, 4]: ~30%
- value (signal) at the highest dose in the dose-response experiment (IN–GCN2 interaction; [5]): 248.5%
- increase in signal (IN–GCN2 interaction) (IN–GCN2 interaction; pilot screen, 100 µM, compared to the DMSO control): 299.9%

Compound: CC1=C(/C=C/C(C)=C/C=C/C(C)=C/C(=O)O)C(C)(C)CCC1 [NSC122758, Tretinoin]
- decrease (inhibition) in IN phosphorylation [3, 4]: no impact
- value (signal) at the highest dose in the dose-response experiment (IN–GCN2 interaction; [5]): 10.5%
- inhibition at 100 µM (IN–GCN2 interaction; 100 µM, dose-response experiment, corresponding to the printed signal, read-out: inhibition at the highest dose in the dose-response experiment): 89.5%
- inhibition at 100 µM (IN–GCN2 interaction; [6]): 87.3%
- decrease in GCN2 auto-phosphorylation (GCN2): no impact

Compound: Cc1cn(-c2cc(NC(=O)c3ccc(C)c(Nc4nccc(-c5cccnc5)n4)c3)cc(C(F)(F)F)c2)cn1 [NSC747599, Nilotinib]
- inhibition at 100 µM [3, 4]: 40%
- decrease in GCN2 auto-phosphorylation (GCN2): no effect

Compound: CNCc1ccc(-c2[nH]c3cc(F)cc4c3c2CCNC4=O)cc1 [NSC756644, Rucaparib phosphate]
- concentration giving full inhibition of IN phosphorylation [3]: 300 µM
- decrease (inhibition) in IN phosphorylation [3, 4]: inhibited
- concentration giving full inhibition of GCN2 auto-phosphorylation (GCN2; serial dilutions from 300 µM to 137 nM): 300 µM
- decrease in GCN2 auto-phosphorylation (GCN2): ~80%

Compound: Cc1ccc(C(=O)Nc2ccc(CN3CCN(C)CC3)c(C(F)(F)F)c2)cc1C#Cc1cnc2cccnn12 [NSC758487, Ponatinib]
- inhibition at 100 µM [3]: > 80%
- concentration giving full inhibition of IN phosphorylation [3]: without reaching full inhibition
- decrease in GCN2 auto-phosphorylation (GCN2): around 35%

Compound: CC1(C)CCC(CN2CCN(c3ccc(C(=O)NS(=O)(=O)c4ccc(NCC5CCOCC5)c([N+](=O)[O-])c4)c(Oc4cnc5[nH]ccc5c4)c3)CC2)=C(c2ccc(Cl)cc2)C1 [NSC766270, Venetoclax]
- decrease (inhibition) in IN phosphorylation [3, 4]: no impact
- inhibition at 100 µM (IN–GCN2 interaction; [6]): 93.6%
- decrease in GCN2 auto-phosphorylation (GCN2): no impact

Compound: C=CC(=O)Nc1cc(Nc2nccc(-c3cn(C)c4ccccc34)n2)c(OC)cc1N(C)CCN(C)C [NSC779217, Osimertinib]
- inhibition at 100 µM [3, 4]: ~20%
- inhibition at 100 µM (IN–GCN2 interaction; [6]): 83.5%
- decrease in GCN2 auto-phosphorylation (GCN2): around 20%

Compound: CCc1c2c(nc3ccc(OC(=O)N4CCC(N5CCCCC5)CC4)cc13)-c1cc3c(c(=O)n1C2)COC(=O)[C@]3(O)CC [irinotecan, Irinotecan hydrochloride]
- inhibition of the IN–GCN2 interaction signal (IN–GCN2 interaction; [7]): no effect

Compound: CC[C@@]1(O)C(=O)OCc2c1cc1n(c2=O)Cc2cc3c(CN(C)C)c(O)ccc3nc2-1 [topotecan, Topotecan hydrochloride]
- inhibition of the IN–GCN2 interaction signal (IN–GCN2 interaction; [7]): no effect
